Results as given in US10322104B2, “Disulfur bridge linkers for conjugation of a cell-binding molecule” (Suzhou M-Conj Biotech Co., Ltd., priority 2015, dated 2019).

Experiments:
[1] = tested on: NCI-N87, a human gastric carcinoma cell line (Ag+); test: In vitro cytotoxicity (MTT), N87 cells; assay type: cell-based
Procedure: (§1) The cell lines used in the cytotoxicity assays were HL-60, a human promyelocytic leukemia cell line; NCI-N87, a human gastric carcinoma cell line; and SKOV3, a human ovarian carcinoma cell line. For HL-60, and NCI-N87, the cells were grown in RPMI-1640 with 10% FBS. For SKOV3 cells, the cells were grown in McCoy's 5A Medium with 10% FBS. To run the assay, the cells (180 μl, 6000 cells) were added to each well in a 96-well plate and incubated for 24 hours at 37° C. with 5% CO2. Next, the cells were treated with test compounds (20 μl) at various concentrations in appropriate cell culture medium (total volume, 0.2 mL). The control wells contain cells and the medium but lack the test compounds. The plates were incubated for 120 hours at 37° C. with 5% CO2. MTT (5 mg/ml) was then added to the wells (20 μl) and the plates were incubated for 1.5 hr at 37° C. The medium was carefully removed and DMSO (180 μl) was added afterward. After it was shaken for 15 min, the absorbance was measured at 490 nm and 570 nm with a reference filter of 620 nm. The inhibition % was calculated according to the following equation: inhibition %=[1−(assay-blank)/(control-blank)]×100.

[2] = tested on: SKOV3, a human ovarian carcinoma cell line (Ag+); test: In vitro cytotoxicity (MTT), SK-OV-3 cells; assay type: cell-based
Procedure: as §1

[3] = tested on: HL-60, a human promyelocytic leukemia cell line (Ag−); test: In vitro cytotoxicity (MTT), HL-60 cells; assay type: cell-based; conditions: 120 hours incubation, read-out: IC50 (nM) HL60 cell (Ag−)
Procedure: as §1

[4] = tested on: human gastric carcinoma N-87 cell line tumor xenograft; test: Antitumor activity in vivo, N-87 tumor xenograft; parameters: species or system female BALB/c Nude mice; conditions: one injection
Procedure: Five-week-old female BALB/c Nude mice (30 animals) were inoculated subcutaneously in the area under the right shoulder with N-87 carcinoma cells (5×10^6 cells/mouse) in 0.1 mL of serum-free medium. The tumors were grown for 8 days to an average size of 136 mm^3. The animals were then randomly divided into 5 groups (6 animals per group). The first group of mice served as the control group and was treated with the phosphate-buffered saline vehicle. […] Three dimensions of the tumor were measured every 4 days and the tumor volumes were calculated using the formula tumor volume=½ (length×width×height). The weight of the animals was also measured at the same time. A mouse was sacrificed when any one of the following criteria was met: (1) loss of body weight of more than 20% from pretreatment weight, (2) tumor volume larger than 1500 mm^3, (3) too sick to reach food and water, or (4) skin necrosis. A mouse was considered to be tumor-free if no tumor was palpable.

[5] = relative to HL60 cell (Ag−) IC50

T-DM1
IC50 ([1]; MTT, 120 hours incubation): 0.266 nM
Specificity for N87 cell [1, 5]: over 56
IC50 ([2]; MTT, 120 hours incubation): 0.177 nM
Specificity for SK-OV-3 cell [2, 5]: over 84
IC50 [3]: > 15 nM
animals with no tumor measurable ([4]; 5 mg/Kg i.v., at days 13 and 21 until day 37 and 45, 6 animals per group): 2/6
duration of tumor growth inhibition ([4]; 5 mg/kg, i.v.): about 44 days
anti-tumor effect (FIG. 12) ([4]; 5 mg/kg, i.v., day 13˜21 till day 60 (the end of experiment)): did not completely eliminate the tumor
